Data on eight compounds can be found in patent US11820773B2, “Tricyclic compounds” (ALIGOS THERAPEUTICS, INC., priority 2020, dated 2023).

Some results are limits rather than exact numbers.

For the experiment, the system named is HBV. As to the kind of experiment: HBV-DNA antiviral assay using HepG2.117 cells (intracellular HBV DNA by qPCR). Format: cell-based, genotype D HBV. The note with it: Hepatitis B virus, 72 h, HBV DNA inhibition, 3 days incubation, 2% DMSO. Put shortly:
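Endpoints are intracellular HBV DNA by qPCR (interpolated from a gBlock standard curve) and ATP-based viability in duplicate plates. Doxycycline-free HepG2.117 Tet-off cells received compounds (9 concentrations, 4-fold steps, 2% DMSO) for 3 days. Inhibition normalised to DMSO wells; EC50/EC90/CC50 by curve fitting.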

In the case of `Cc1nn[nH]c1-c1cc(-n2c(=O)c3c(n4ncc(Cc5ccccc5)c24)CN(C(=O)c2ccc(Br)c(C(F)(F)F)c2)[C@H](C)C3)nn1C` (stereo in doubt) [Compound 83a, rac-(11R)-5-benzyl-12-[4-bromo-3-(trifluoromethyl)benzoyl]-11-methyl-7-[1-methyl-5-(4-methyl-1H-triazol-5-yl)pyrazol-3-yl]-2,3,7,12-tetrazatricyclo[7.4.0.0^2,6]trideca-1(9),3,5-trien-8-one], the EC50 is less than 50 nM.

In turn, `C[C@H]1Cc2c(n3ncc(Cc4ccccc4)c3n(-c3ccc(-c4n[nH]c(=O)n4C)cc3)c2=O)CN1C(=O)c1ccc(Br)c(C(F)(F)F)c1` (stereo in doubt) [Compound 58b, rac-(11S)-5-benzyl-12-[4-bromo-3-(trifluoromethyl)benzoyl]-11-methyl-7-[4-(4-methyl-5-oxo-1H-1,2,4-triazol-3-yl)phenyl]-2,3,7,12-tetrazatricyclo[7.4.0.0^2,6]trideca-1(9),3,5-trien-8-one] showed an EC50 of less than 50 nM.

For `Cc1nnc(-c2ccc(-n3c(=O)c4c(n5ncc(CC(C)C)c35)CN(C(=O)c3ccc(Cl)c(C(F)(F)F)c3)[C@H](C)C4)cc2)[nH]1` (stereo in doubt) [Compound 65a, rac-(11R)-12-[4-chloro-3-(trifluoromethyl)benzoyl]-5-isobutyl-11-methyl-7-[4-(5-methyl-4H-1,2,4-triazol-3-yl)phenyl]-2,3,7,12-tetrazatricyclo[7.4.0.0^2,6]trideca-1(9),3,5-trien-8-one], the EC50 was less than 50 nM.

On to `CNC(=O)c1ccc(-n2c(=O)c3c(n4ncc(CC(C)C)c24)CN(C(=O)c2ccc(Br)c(Cl)c2)[C@H](C)C3)cc1` (stereo in doubt) [Compound 55a, N-methyl-4-[rac-(11R)-12-(4-bromo-3-chloro-benzoyl)-5-isobutyl-11-methyl-8-oxo-2,3,7,12-tetrazatricyclo[7.4.0.0^2,6]trideca-1(9),3,5-trien-7-yl]benzamide], for which the concentration for a half-maximal effect (EC50) was less than 50 nM.

`Cc1nn[nH]c1-c1ccc(-n2c(=O)c3c(n4ncc(Cc5ccccc5)c24)CN(C(=O)c2ccc(Br)c(C(F)(F)F)c2)[C@H](C)C3)cc1` (stereo in doubt) [Compound 80a, rac-(11R)-5-benzyl-12-[4-bromo-3-(trifluoromethyl)benzoyl]-11-methyl-7-[4-(4-methyl-1H-triazol-5-yl)phenyl]-2,3,7,12-tetrazatricyclo[7.4.0.0^2,6]trideca-1(9),3,5-trien-8-one]: the EC50 is less than 50 nM.

On to `C[C@@H]1Cc2c(n3ncc(Cc4ccccc4)c3n(-c3ccc(-c4nnn[nH]4)cc3)c2=O)CN1C(=O)c1ccc(Br)c(C(F)(F)F)c1` (stereo in doubt) [Compound 71a, rac-(11R)-5-benzyl-12-[4-bromo-3-(trifluoromethyl)benzoyl]-11-methyl-7-[4-(1H-tetrazol-5-yl)phenyl]-2,3,7,12-tetrazatricyclo[7.4.0.0^2,6]trideca-1(9),3,5-trien-8-one], for which the EC50 fell in the range of 500 to 5000 nM.

Regarding `CC(C)Cc1cnn2c3c(c(=O)n(-c4ccc(-c5nncn5C)cc4)c12)C[C@H](C)N(C(=O)c1ccc(Cl)c(C(F)(F)F)c1)C3` (stereo in doubt) [Compound 67b, rac-(11S)-12-[4-chloro-3-(trifluoromethyl)benzoyl]-5-isobutyl-11-methyl-7-[4-(4-methyl-1,2,4-triazol-3-yl)phenyl]-2,3,7,12-tetrazatricyclo[7.4.0.0^2,6]trideca-1(9),3,5-trien-8-one], the EC50 is 50 to 500 nM.

Regarding `C[C@H]1Cc2c(n3ncc(Cc4ccccc4)c3n(-c3ccc(-c4nncn4C)cc3)c2=O)CN1C(=O)c1ccc(Br)c(C(F)(F)F)c1` (stereo in doubt) [Compound 39b, rac-(11S)-5-benzyl-12-[4-bromo-3-(trifluoromethyl)benzoyl]-11-methyl-7-[4-(4-methyl-1,2,4-triazol-3-yl)phenyl]-2,3,7,12-tetrazatricyclo[7.4.0.0^2,6]trideca-1(9),3,5-trien-8-one], the EC50 was in the range of 50 to 500 nM.

The EC50 is the concentration at which the effect is half-maximal. A higher EC50 goes with lower potency in that assay.
